Reference: patent publication US9849131B2 (AUTIFONY THERAPEUTICS LIMITED, priority 2009, dated 2017)

Columns and labels:
common marmosets = assay: Behaviour of the common marmoset on threatening human approach (Example 94); type: in vivo; settings: for Number of Jumps / Number of postures: 2 minute test, mean ± sem
Excerpt: Central anxiolytic effects of a test compound can be assessed from the ability of the compound to reduce the characteristic defensive postures of marmosets in response to a threatening approach by a human. The test can also be used to assess the sedative or hypnotic effects of a test compound from its ability to reduce the number of jumps made by the animals. The study was based on the method described in Costall, B. et al (1988) Br. J. Pharmac. 95 p 475P. Laboratory-bred (GSK SpA, Italy) male and female common marmosets over 2 years of age, weighing 300-500 g were used in the study. The animals were caged in couples in a housing room maintained at 25±1° C., 60% humidity, and a 12 hour light/dark cycle (lights on at 0600, with 30 minutes simulated dawn and twilight). Both animals in each pair were involved in the test, which was carried out with the animals in their home cage.
The postures recorded in the test were those described by Costall et al supra; • Genital presenting (“Tail Posture”): the animal's back is turned to the observer with elevation of the tail to expose the genital region; • Scent-marking: the animal scent-marks the cage surfaces using circum-anal and circum-genital scent glands; • Slit-stare: the animal stares at the observer with flattened ear tufts and eyes reduced to “slits” • Arch-piloerection: the animal moves around the cage with arched back and full-body piloerection, failing to make eye contact with the observer
The number of jumps from the back of the cage to the cage front provided an index of locomotor activity, which could be used to assess the potential for a hypnotic effect, sedation, or locomotor stimulation produced by the test compound.

[1] = test system: high voltage-activated potassium currents in MNTB neurons (presumed to be mediated by Kv3.1 channels); assay: Potassium currents recorded from MNTB neurons, in vitro (Example 91); type: cell-based, mouse; settings: 10 microM in the continuing presence of TEA (1 mM); voltage steps to +40 mV
Protocol: Male CBA/Ca mice (aged 12-16 days) were used in these experiments (in accordance with the UK Animals Scientific Procedures Act, 1986). Brain slices containing the medial nucleus of the trapezoid body (MNTB) were prepared as described previously (Brew and Forsythe, 2005).
Chemicals and reagents were purchased from Sigma, (Poole, UK) unless otherwise noted. EXAMPLE 19 was dissolved in DMSO and diluted in ACSF to the required concentration.
Recordings from identified MNTB neurons were conducted as previously described (Brew and Forsythe, 2005). Slices was placed in a superfusion chamber on an inverted microscope stage and continuously perfused with gassed (95% O2-5% CO2) ACSF at a rate of 1 ml min^−1 at room temperature. Whole-cell recordings were made from visually identified MNTB neurons using an […] amplifier (Molecular Devices, Union City, Calif., USA). Patch solution comprised (in mM) potassium gluconate (97.5), KCl (32.5), Hepes (40), EGTA (5), MgCl2 (1), Na2 phosphocreatin (5), pH 7.2 with KOH. Pipettes had resistances of 3-5 MΩ and series resistances were 6-10 MΩ (compensated by 70%, 10 μs lag). Access resistance was frequently monitored and the recording discarded if increases were more than 2 MΩ. […]

[2] = 0.3 mg/kg p.o. 2 hours before test
[3] = 1 mg/kg p.o. 2 hours before test
[4] = 3 mg/kg p.o. 2 hours before test

CC[C@H]1NC(=O)N(c2ccc(Oc3ccc(C)c(OC)c3)nc2)C1=O [Example 19, (5R)-5-ethyl-3-(6-{[4-methyl-3-(methyloxy)phenyl]oxy}-3-pyridinyl)-2,4-imidazolidinedione]
Number of Jumps (common marmosets; [2]): 21.3 ± 2.7 | Number of postures (common marmosets; [2]): 12.2 ± 1.03 | effect on the number of jumps (common marmosets; 1 mg/kg p.o.): significantly reduced | Number of Jumps (common marmosets; [3]): 15.3 ± 2.5 | Number of postures (common marmosets; [3]): 10.0 ± 1.2 | effect on the number of jumps (common marmosets; 3 mg/kg p.o.): significantly reduced | Number of Jumps (common marmosets; [4]): 11.5 ± 1.9 | Number of postures (common marmosets; [4]): 9.7 ± 1.1 | effects on postures (common marmosets; any dose (0.3, 1, 3 mg/kg p.o.)): without any effects | reversal of TEA-induced reduction of high voltage-activated potassium current amplitude [1]: reversed
